Here are results for 16 compounds from US5674905A, “Bicyclooctane and bicycloheptane derivatives” (James Black Foundation Limited, priority 1992, dated 1997).

One test concerns the target T1, CCKB receptor (Mus musculus, UniProt P56481).
T1 construct: The cortex was dissected, weighed and homogenised in 40 ml ice-cold buffer; from tissue; host or cells: cerebral cortex membranes of male CD1 mice (Charles River)
T1 sequence (P56481 1-453): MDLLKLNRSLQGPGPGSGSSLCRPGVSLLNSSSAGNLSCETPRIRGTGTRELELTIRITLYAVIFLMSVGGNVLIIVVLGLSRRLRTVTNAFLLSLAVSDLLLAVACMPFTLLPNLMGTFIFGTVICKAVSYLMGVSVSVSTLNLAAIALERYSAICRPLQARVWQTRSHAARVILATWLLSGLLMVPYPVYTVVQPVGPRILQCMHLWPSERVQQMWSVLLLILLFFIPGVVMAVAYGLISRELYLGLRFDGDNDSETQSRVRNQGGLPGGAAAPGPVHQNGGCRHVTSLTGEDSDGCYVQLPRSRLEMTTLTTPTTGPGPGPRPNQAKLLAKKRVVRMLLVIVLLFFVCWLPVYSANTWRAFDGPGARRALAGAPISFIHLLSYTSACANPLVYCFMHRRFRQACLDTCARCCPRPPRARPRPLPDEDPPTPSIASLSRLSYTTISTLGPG
Put plainly: radioligand binding assay at the CCKB receptor in mouse cortical membranes ([125I]-CCK8S). As to conditions: 150 min at 21±3°; for Ki: read-out: CCKB pKi (converted). The method, then: The compounds of the examples were tested for binding at the CCKB receptor in mouse cortical membranes by means of a radioligand binding assay. The procedure was as follows:
The whole brains from male mice (CD1 22-25 g; Charles River) were removed and placed in ice-cold buffer (pH7.2 @ 21±3 °) of the following composition (mM); 10 HEPES, 130 NaCl, 4.7 KCl, 5 MgCl2, 1 EDTA and containing 0.25 g.1^-1 bacitracin. The cortex was dissected, weighed and homogenised in 40 ml ice-cold buffer using a Teflon-in-glass homogeniser. The homogenate was centrifuged at 39,800 g for 20 min at @ 4°, the supernatant discarded and the pellet resuspended by homogenisation in fresh buffer. The homogenate was recentrifuged (39,800 g; 20 min @4°) and the final pellet was resuspended in HEPES buffer to give a tissue concentration of 2 mg.ml^-1 (original wet weight).
The membranes ([…]) were incubated for 150 min at 21±3° in a final volume of 0.5 ml with HEPES buffer containing [^125 I]-CCK8S (0.05 ml; 200 pM NEN 2200 Ci.mmol^-1) and competing compound. Total and non-specific binding of [^125 I]-CCK8S were defined using 0.05 ml of buffer and 0.05 ml of […] L-365,260, respectively. The assay was terminated by rapid filtration through pre-soaked Whatman GF/B filters using a Brandell Cell harvester. The filters were washed (3×3 ml) with ice-cold 50 mM Tris-HC1 (pH7.4 @ 4° C.) and bound radioactivity determined by counting (1 min.) in a gamma-counter.

A further test deals with T2, gastrin receptors (Rattus norvegicus, UniProt P30553).
T2 construct: from tissue; host or cells: isolated perfused whole stomach of immature rats (33-50 g, ca. 21 days old)
T2 sequence (P30553 1-452): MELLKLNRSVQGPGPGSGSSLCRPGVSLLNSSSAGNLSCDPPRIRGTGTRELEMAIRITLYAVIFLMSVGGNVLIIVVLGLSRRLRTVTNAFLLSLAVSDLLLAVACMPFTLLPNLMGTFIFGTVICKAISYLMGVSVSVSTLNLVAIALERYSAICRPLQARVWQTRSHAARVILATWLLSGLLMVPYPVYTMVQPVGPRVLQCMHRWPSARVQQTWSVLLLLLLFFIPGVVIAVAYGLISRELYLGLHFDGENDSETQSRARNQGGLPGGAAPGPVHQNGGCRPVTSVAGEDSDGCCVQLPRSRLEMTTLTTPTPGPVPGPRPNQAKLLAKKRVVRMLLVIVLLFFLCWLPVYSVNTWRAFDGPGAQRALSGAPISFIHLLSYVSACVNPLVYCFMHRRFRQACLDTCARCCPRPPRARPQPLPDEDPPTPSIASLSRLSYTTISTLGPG
Put plainly: gastrin antagonist activity in an immature rat stomach assay (pentagastrin-stimulated acid secretion). To be noted: isolated immature rat stomach, cumulative pentagastrin dose-response curves; for Kb: read-out: Gastrin pKB (converted); for Gastrin pKB: 60 min. The method, then: The compounds of the examples were also tested for gastrin antagonist activity in an immature rat stomach assay. The procedure was as follows:
The oesophagus of immature rats (33-50 g, ca. 21 days old) was ligated at the level of the cardiac sphincter and the duodenal sphincter was cannulated. The stomach was excised and flushed with ca. 1 ml of unbuffered physiological saline solution. The fundus was punctured and cannulated. A further 4-5 ml of unbuffered solution was flushed through the stomach to ensure the preparation was not leaking. The stomach was lowered into a jacketed organ bath containing 40 ml of buffered solution containing 3×10^-8 M 5-methyl-furmethide, maintained at 37° and gassed vigorously with 95% O2 /5% CO2. The stomach was continuously perfused at a rate of 1 ml min^-1 with unbuffered solution gassed with 100% O2 with the perfusate passing over an internally referenced pH-electrode fixed 12 cm above the stomach.
After 120 min of stabilisation the drugs were added directly to the serosal solution in the organ bath and after a further 60 min cumulative pentagastrin dose-response curves were started. Changes in acid secretion were monitored and the curves analysed according to Black et. al., Br. J. Pharmacol., 1985, 86, 581.

For `O=C1CC2c3ccccc3C1C(C(=O)O)C2C(=O)NCC12CC3CC(CC(C3)C1)C2` (mixture of isomers) [Example 13, endo-(±)-cis-8-(1-adamantylmethylaminocarbonyl)-2-oxo-5,6-benzobicyclo[2.2.2]octane-7-carboxylic acid], the Ki on CCKB receptor is 2.51 µM. Also, the Kb at gastrin receptors is 3.16 µM.
`COC(=O)[C@H](C)NC(=O)C1C2CCC(CC2)C1C(=O)NCC12CC3CC(CC(C3)C1)C2` (mixture of isomers) [Example 25, cis-(±)-2-(1-S-Methoxycarbonyl-ethylaminocarbonyl)-3-(1-adamantylmethylaminocarbonyl)-bicyclo[2.2.2]octane]: the Ki at CCKB receptor is 7.94 µM. Moreover, at gastrin receptors, the Kb was 1 µM.
Consider `COC(=O)C12CC(c3ccccc31)C(C(=O)NCC13CC4CC(CC(C4)C1)C3)C2C(=O)O` (mixture of isomers) [Example 54, 1-methoxycarbonyl-endo-cis-(±)-7-(1-adamantylmethylaminocarbonyl)-2,3-benzobicyclo-[2.2.1] hept-6-carboxylic acid], for which the “CCKB pKi” value on CCKB receptor is on record as 5.3. Also, the “Gastrin pKB” value at gastrin receptors is on record as 6.1.
On the same counts, the results for `COC(=O)C12CC(c3ccccc31)C(C(=O)NCC13CC4CC(CC(C4)C1)C3)C2C(=O)N[C@@H](Cc1ccccc1)C(=O)Nc1cc(C(=O)O)cc(C(=O)O)c1` (mixture of isomers) [Example 55, (±)-1-methoxycarbonyl-endo-cis-6-(1S-(3,5-dicarboxyphenylaminocarbonyl)-2-phenylethylamino-carbonyl)-7-(1-adamantylmethylaminocarbonyl)-2,3-benzo-bicyclo[2.2.1]heptane] are 7.6 and 6.9.
In the same order, the values of `COC(=O)C12CC(c3ccccc31)C(C(=O)NCC13CC4CC(CC(C4)C1)C3)C2C(=O)N1CCC[C@@H]1C(=O)O` (mixture of isomers) [Example 56, (±)-1-methoxycarbonyl-endo-cis-6-(2R-carboxypyrrolidinocarbonyl)-7-(1-adamantylmethylaminocarbonyl)-2,3-benzobicyclo[2.2.1]heptane] are 5.1 and 5.6.
`O=C(O)C1C2C=CC(C2=C(c2ccccc2)c2ccccc2)C1C(=O)NCC12CC3CC(CC(C3)C1)C2` (racemic) [Example 39, (±)-endo and exo-cis-7-(1-adamantylmethylaminocarbonyl)-2-diphenylmethylene bicyclo-[2.2.1]hept-4-ene-6-carboxylic acid]: the Ki at CCKB receptor was 2 µM. For the same compound, on gastrin receptors, the Kb is 2.51 µM.
In the same order, the values of `O=C(O)[C@@H]1[C@H](C(=O)NCC23CC4CC(CC(C4)C2)C3)[C@H]2C=C[C@@H]1c1ccccc12` (relative stereo) [Example 2, endo-(±)-cis-8-(1-adamantylmethylaminocarbonyl)-5,6-benzobicyclo[2.2.2]oct-2-ene-7-carboxylic acid] are 2.51 µM and 1.26 µM.
In the same order, the values of `CC1=C(C)[C@H]2c3ccccc3[C@@H]1[C@@H](C(=O)O)[C@H]2C(=O)NCC12CC3CC(CC(C3)C1)C2` (relative stereo) [Example 11, exo-(±)-cis-8-(1-adamantylmethylaminocarbonyl)-2,3-dimethyl-5,6-benzobicyclo[2.2.2]oct-2-ene-7-carboxylic acid] are 1.58 µM and 6.31 µM.
In the same order, the values of `CC1=C(C)[C@H]2c3ccccc3[C@@H]1[C@H](C(=O)O)[C@@H]2C(=O)NCC12CC3CC(CC(C3)C1)C2` (relative stereo) [Example 12, endo-(±)-cis-8-(1-adamantylmethylaminocarbonyl)-2,3-dimethyl-5,6-benzobicyclo[2.2.2]oct-2-ene-7-carboxylic acid] are 0.794 µM and 5.01 µM.
As to `O=C(NCC12CC3CC(CC(C3)C1)C2)C1C2C=CC(c3ccccc32)C1C(=O)N[C@H](Cc1c[nH]c2ccccc12)C(=O)O` (single isomer, unassigned) [Example 15, endo-cis-7-(2-R-(3-indolyl)-1-carboxy-ethylaminocarbonyl)-8-(1-adamantylmethylaminocarbonyl)-5,6-benzobicyclo[2.2.2]oct-2-ene], the Ki on CCKB receptor is 1.58 µM. On gastrin receptors, the Kb is 3.16 µM.
In the same order, the values of `O=C(NCC12CC3CC(CC(C3)C1)C2)C1C2C=CC(c3ccccc32)C1C(=O)N[C@H](Cc1c[nH]c2ccccc12)C(=O)O` (single isomer, unassigned) [Example 16, endo-cis-7-(2-R-(3-indolyl)-1-carboxy-ethylaminocarbonyl)-8-(1-adamantylmethylaminocarbonyl)-5 , 6-benzobicyclo[2.2.2]oct-2-ene] are 0.316 µM and 0.501 µM.
In the same order, the values of `COC(=O)[C@H](C)NC(=O)C1C2C=CC(c3ccccc32)C1C(=O)NCC12CC3CC(CC(C3)C1)C2` (stereo partly drawn) [Example 7, exo-cis-7-(1-S-methoxycarbonyl-ethylaminocarbonyl)-8-(1-adamantylmethylaminocarbonyl)-5,6-benzobicyclo[2.2.2]oct-2-ene] are 0.251 µM and 0.316 µM.
For the compound `COC(=O)[C@H](C)NC(=O)C1C2C=CC(c3ccccc32)C1C(=O)NCC12CC3CC(CC(C3)C1)C2` (stereo partly drawn) [Example 8, endo-cis-7-(1--S--methoxycarbonylethylaminocarbonyl)-8-(1-adamantylmethylaminocarbonyl)-5,6-benzobicyclo[2.2.2]oct-2-ene], at CCKB receptor, the Ki was 0.631 µM. Further, the Kb on gastrin receptors was 0.501 µM.
Take `O=C(NCC12CC3CC(CC(C3)C1)C2)C1C2C=CC(c3ccccc32)C1C(=O)N1CCC[C@@H]1C(=O)O` (stereo partly drawn) [Example 9, exo-cis-7-(2-R-carboxy-pyrrolidinocarbonyl)-8-(1-adamantylmethylaminocarbonyl)-5,6-benzobicyclo-[2.2.2]oct-2-ene]: the Ki at CCKB receptor was 2.51 µM. On gastrin receptors, the Kb was 0.794 µM.
As to `COC(=O)[C@@H]1CCCN1C(=O)C1C2C=CC(c3ccccc32)C1C(=O)NCC12CC3CC(CC(C3)C1)C2` (stereo partly drawn) [Example 31, exo-cis-7-(2-S-methoxycarbonyl-pyrrolidinocarbonyl)-8-(1-adamantylmethylaminocarbonyl)-5,6-benzo-bicyclo[2.2.2]oct-2-ene], on gastrin receptors, the Kb is 0.501 µM.
For the compound `C[C@@H](NC(=O)C[C@@H]1CCCN1C(=O)C1C2CCC(c3ccccc32)C1C(=O)NCC12CC3CC(CC(C3)C1)C2)C(=O)O` (stereo partly drawn) [Example 52, cis-endo-7-(2S-(1R-carboxyethylaminocarbonylmethyl)-pyrrolidinocarbonyl)-8-(1-adamantylmethylaminocarbonyl)-2,3-benzobicyclo[2.2.2]octane], the Ki on CCKB receptor was 0.1 µM.
